We go through one molecule from ChEMBL document CHEMBL3585280, “2-Aminopyridines with a Truncated Side Chain To Improve Human Neuronal Nitric Oxide Synthase Inhibitory Potency and Selectivity” (J Med Chem, 2015).

Type in all cases: ADME, organism-based
Series [1] concerns Brain. The series is described as follows: AUClast in BALB/c mouse brain at 10 mg/kg, po. As to conditions: in vivo.
A short description of series [2]: Cmax in BALB/c mouse plasma at 2 mg/kg, iv. On the set-up: dose 2 mg/kg, route intravenous.
Series [3] is described as follows: Cmax in BALB/c mouse brain at 2 mg/kg, iv. On the set-up: dose 2 mg/kg, route intravenous.
Series [4] relates to Brain. The series can be described thus: AUClast in BALB/c mouse brain at 2 mg/kg, iv. As to conditions: in vivo.

A word on the Cmax: it is the highest concentration seen after dosing.

`CNCCN(C)c1cc(C#N)cc(CCc2cc(C)cc(N)n2)c1`: the AUClast in series [1] amounted to 673.67 ng·h/g; in series [4], 789.07 ng·h/g. For the same molecule, the results for the Cmax in series [2] and in series [3] were 472 ng/mL and 100 ng/g, respectively.
